From US20240196889A1, “USE OF DI- AND TRI[…] ACIDS IN THE PREVENTION OF BIOFILM FORMATION” (priority 2020, published 2024)

What was measured:
[1] = system: S. Typhimurium ATCC 14028; experiment: Petri dish biofilm assay (CFU); assay type: cell-based, Salmonella enterica serovar Typhimurium; conditions: 100 μM, 48 h, 25° C.
Procedure: ONCs of S. Typhimurium ATCC 14028 were normalized to an OD595 of 3.2 and diluted 1/100 in a small (60 mm Ø) glass Petri dishes containing 10 ml of 1/20 TSB to which a final concentration of 100 μM agaric or the corresponding amount of DMSO was added. Around 12*10^7 ml^−1 cells were inoculated and incubated under static conditions at 25° C. for 48 h. Afterwards, the liquid above the biofilms was poured off and the biofilms were scraped off the bottom of the plate in 1 ml of PBS, passed through a syringe (25 G) and vortexed to break down the biofilm structure and ensure an homogenous suspension during dilution [Hermans et al. (2011). Journal of microbiological methods 84, 467-478]. The number of colony forming units (CFU) of biofilms was determined by plating.

[2] = system: Salmonella Typhimurium ATCC 14028; experiment: Staining of flagella; assay type: cell-based, Salmonella enterica serovar Typhimurium; conditions: 100 μM vs DMSO, 24 h
Procedure: An ONC of Salmonella Typhimurium ATCC 14028 was diluted 1/100 in 5 ml TSB 1/20, with either a final concentration of 100 μM agaric or the corresponding amount of DMSO as a control. The planktonic cultures were incubated for 24 h at 25° C., shaking at 200 rpm. The flagella were stained according to Kearns and Losick (2003) Molecular microbiology 49, 581-590. Briefly, the stain consist of ten parts mordant (2 g tannic acid, 10 ml 5% phenol, 10 ml saturated aqueous AIK(SO4)2) mixed with one part stain (12% crystal violet in ethanol). 3 μl of sample was applied to a microscopic slide and covered with a 22 mm×40 mm coverslip. After placing the slide vertically, 10 μl was applied to the top edge of the coverslip in order to stain the sample due to capillary forces. Samples were visualized with phase contrast using a Zeiss Axio Imager Z1 microscope with an EC Plan Neofluar (×100 magnification/1.3 numerical aperture) objective.

[3] = system: S. Typhimurium SL1344 (S1) in mixed-species biofilm with S2 and E1; experiment: Mixed-species tolerance assay (CFU); assay type: cell-based, Salmonella Typhimurium and E. coli
Procedure: The monospecies and mixed-species biofilms were grown on petri dishes for 48 h at 25° C. as described above. The medium was then replaced by 5 ml PBS with either 0.25% H2O2 or 1 μM ciprofloxacin and the biofilms were incubated for an additional 1 h at 25° C. Subsequently, the biofilms were scraped off and plated out on solid LB agar plates for CFU determination. To differentiate between the strains, S1 was labelled with constitutive gfpmut3 on a plasmid, while S2 and E1 were labelled with plasmid-encoded constitutive dsRed.T4. Differences in colony shape and size allowed differentiation between S2 and E1 during CFU counting.

[4] = system: Salmonella Typhimurium ATCC 14028; experiment: Antibiofilm assay (static peg assay, Calgary biofilm device, crystal violet staining; planktonic growth via OD600); assay type: cell-based, Salmonella enterica serovar Typhimurium
Procedure: A static peg assay for the prevention of bacterial biofilm formation was used as described previously. A lid carrying 96 polystyrene pegs was fitted into a microtiter plate with a peg hanging into each well. Two-fold serial dilutions of the compounds in 100 μl liquid broth per well were prepared in the microtiter plate. Subsequently, an overnight culture was diluted 1:100 into the respective liquid broth, and 100 μl (˜10^6 cells) was added to each well of the microtiter plate, resulting in a total amount of 200 μl medium per well. After placing the lid on the microtiter plate, samples containing Salmonella, Pseudomonas or E. coli were incubated statically in TSB 1/20 for 48 h at 25° C., whereas S. aureus was incubated in undiluted TSB at 37° C. for 48 h. After incubation, the lid was removed from the microtiter plate and liquid culture was transferred to a new microtiter plate prior to determining the prior to determining the planktonic growth in each well via OD600 measurements using a Synergy MX multimode reader (Biotek, Winooski, VT). The pegs were washed once in 200 μl PBS and the remaining attached bacteria were stained for 30 min with 200 μl 0.1% crystal violet in an isopropanol-methanol-PBS solution (1:1:18). Excess stain was washed off by placing the pegs in a 96-well plate filled with 200 μl distilled water per well. Afterwards, the pegs were air dried for 30 min and the dye bound to the adherent cells dissolved into 200 μl 30% glacial acetic acid. The OD570 of each well was measured using a Synergy MX multimode reader. Data was analysed using the GraphPad Prism 6 software.

[5] = system: Salmonella; experiment: Soft agar swimming assay; assay type: cell-based, Salmonella enterica serovar Typhimurium; conditions: 100 μM, 0.25% agar, 24 h, 25° C.
Procedure: Based on Kim & Surette (2003) Biol Proced Online 5, 189-196, swimming plates were made by mixing 30 ml TSB 1/20 with 0.25% agar. These plates contained either a final concentration of 100 μM agaric or the corresponding amount of DMSO. After 2 h drying at room temperature, 3 μl of an overnight culture was inoculated by piercing the surface of the agar with the pipette tip. The plates were incubated upright for 24 h at 25° C., afterwards the size of the halo was measured and visually recorded.

[6] = system: S. Typhimurium ATCC 14028; experiment: Microscopic analysis of fluorescently labelled biofilms; assay type: cell-based, Salmonella enterica serovar Typhimurium; conditions: 100 μM, 48 h
Procedure: ONCs of S. Typhimurium ATCC 14028 containing the pFPV25.1 plasmid encoding for constitutive GFPmut3 productions were normalized to an an OD595 of 3.2 and 20 μl was added to a glass bottom microwell dishes (35 mm Ø petri dish, 20 mm Ø microwell) containing 2 ml 1/20 TSB and 100 μg ml^−1 of ampicillin and a final concentration of 100 μM agaric or the corresponding amount of DMSO. Around 12*10^7 ml^−1 cells were inoculated and incubated under static conditions at 25° C. for 48 h. After incubation, the planktonic phase was gently poured off and the biofilm was washed with 1 ml PBS. Biofilms were visualized with […]

For `CCCCCCCCCCCCCCCCC(C(=O)O)C(O)(CC(=O)O)C(=O)O` (stereo not drawn) [Agaric acid, 2-hydroxynonadecane-1,2,3-tricarboxylic acid], which “number of cells (CFU) attaching to bottom of glass petri dish” value [1] is on record?
The value was “significantly inhibits the number of Salmonella cells attaching to the surface”.

What about the flagellar appearance [2] of the same compound?
The flagellar appearance was “no differences in flagellar appearance”.

And the “enhanced tolerance of S1 in mixed-species conditions” value ([3]; 0.25% H2O2 or 1 μM ciprofloxacin, 1 h)?
Its value is “completely abolished the enhanced tolerance of S1”.

And the “number of S1 cells surviving antimicrobial treatment in mixed-species communities” value ([3]; in presence of agaric acid)?
Its value is “lowest number of S1 cells surviving antimicrobial treatment”.

And the “tolerance of remaining biofilm cells towards ciprofloxacin and H2O2” value ([3]; preventive treatment, 0.25% H2O2 or 1 μM ciprofloxacin, 1 h)?
Its value is “reduced the tolerance of the remaining biofilm cells”.

And the inhibition at 800 µM ([4]; Salmonella enterica, at 800 μM, crystal violet staining, read-out: inhibition of biofilm formation)?
Its inhibition at 800 µM is 99.9%.

What about the “planktonic growth (OD600)” value ([4]; after 48 h incubation in the Calgary biofilm device) of the same compound?
Its value is “not inhibited”.

And the “concentrations at which biofilm formation is significantly prevented” value ([4]; crystal violet staining, TSB 1/20, 48 h, 25° C.)?
The value was “higher than 100 μM”.

And the “planktonic growth (OD600) at the highest concentration” value ([4]; highest concentration tested)?
Its value is “enhanced”.

And the “swimming motility (halo formation)” value [5]?
The value was “no halo was formed”.

What about the “swimming motility (halo formation)” value ([5]; listed as agaric acid) of the same compound?
Its value is “almost completely inhibited motility”.

And the “biofilm density by microscopy” value [6]?
The value was “less dense compared to the control”.
